Test results taken from patent US20080305519A1, “Biochemical method for specific protein labeling” (priority 2006, published 2008).

Legend:
[1] = test system: semi-purified tubulin/parkin complex; test: Biotin Tag Conjugation of Tubulin/Parkin Complex; type: biochemical, rat; conditions: for labeling of tubulin in tubulin/parkin complex (FIG. 8): FIG. 8 lanes 3 and 6; for biotin labeling efficiency of parkin-mediated tubulin modification versus recognition sequence: FIG. 2b, tags 1-6 compared
Description: A total of 4 μg semi-purified tubulin/parkin complex and varying concentrations of the biotin tag was incubated at 37° C. for 15 min in 10 μL buffers of 50 mM Tris, 50 mM NaCl, 10 mM MgCl2, 10 μM ATP, pH 7.6. For DTT reduction, 1 μL of 6M DTT was added and the solution was incubated at r.t. for additional 30 min. Reactions were terminated by the additions of 2 μL 6×SDS-PAGE sample buffer containing 100 mM DTT and the mixtures were boiled at 95° C. for 5 min. The biotin-labeled substrates were resolved from the free biotin tags with 8-16% Tris-Glycine SDS-PAGE gel, transferred onto the PVDF membrane using a semi-dry protein transfer apparatus, and detected using the VECTASTAIN ABC-AmP detection system following the manufacturer's protocol. The intensities of protein bands are quantified with the ImageJ program (http://rsb.info.nih.gov/ij/) following the program manual.

[2] = biological target: T1, ubiquitin activating enzyme (E1), rabbit (Oryctolagus cuniculus, UniProt Q29504); test: E1-Biotin Tag Conjugation Assay; type: biochemical
T1 construct: purchased Boston Biochem E-302
T1 sequence (Q29504 1-1058): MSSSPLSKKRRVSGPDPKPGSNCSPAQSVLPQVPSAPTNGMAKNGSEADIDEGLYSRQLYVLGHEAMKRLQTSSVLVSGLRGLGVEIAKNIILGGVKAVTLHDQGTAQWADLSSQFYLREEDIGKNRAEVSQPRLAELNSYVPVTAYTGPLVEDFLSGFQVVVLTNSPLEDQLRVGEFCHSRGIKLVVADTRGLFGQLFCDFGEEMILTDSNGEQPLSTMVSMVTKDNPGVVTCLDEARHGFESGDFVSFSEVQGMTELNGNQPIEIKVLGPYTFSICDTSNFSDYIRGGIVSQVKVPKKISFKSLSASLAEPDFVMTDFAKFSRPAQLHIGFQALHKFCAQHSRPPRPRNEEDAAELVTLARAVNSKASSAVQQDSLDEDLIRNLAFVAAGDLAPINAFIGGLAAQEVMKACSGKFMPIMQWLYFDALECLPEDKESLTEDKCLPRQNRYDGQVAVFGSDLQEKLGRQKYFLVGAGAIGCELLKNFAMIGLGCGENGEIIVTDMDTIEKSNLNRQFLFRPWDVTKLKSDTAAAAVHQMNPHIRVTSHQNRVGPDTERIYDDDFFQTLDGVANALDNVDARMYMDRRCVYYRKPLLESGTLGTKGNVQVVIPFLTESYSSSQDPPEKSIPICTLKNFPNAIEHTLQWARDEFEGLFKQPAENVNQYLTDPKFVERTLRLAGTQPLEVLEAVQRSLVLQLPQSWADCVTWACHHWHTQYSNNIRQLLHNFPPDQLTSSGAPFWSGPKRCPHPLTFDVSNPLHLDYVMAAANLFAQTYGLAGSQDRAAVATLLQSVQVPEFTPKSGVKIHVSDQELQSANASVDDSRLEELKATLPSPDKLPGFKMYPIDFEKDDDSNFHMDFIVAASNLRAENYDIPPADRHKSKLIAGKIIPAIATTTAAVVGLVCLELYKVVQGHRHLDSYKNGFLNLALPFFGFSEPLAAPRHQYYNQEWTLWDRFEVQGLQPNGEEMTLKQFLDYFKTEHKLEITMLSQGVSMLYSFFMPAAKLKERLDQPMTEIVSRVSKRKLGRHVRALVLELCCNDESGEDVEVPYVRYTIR
Description: The E1 enzyme was diluted with 50 mM HEPES buffer, pH 7.6 to derive the 0.45 μM stocks. A total of 90 nM rabbit E1 and varying concentrations of tag 1 was incubated at 37° C. for 5 min in 10 μL buffers of 50 mM Tris, 50 mM NaCl, 10 mM MgCl2, 10 μM ATP, pH 7.6. The reactions were terminated by the additions of 2 μL 6× bromophenol-absent SDS sample buffer and the mixtures were boiled at 85° C. for 2 min. The biotin-labeled E1 thioesters were resolved from the free biotin tags with 8-16% Tris-Glycine SDS-PAGE gel, transferred onto the PVDF membrane using a semi-dry protein transfer apparatus, and detected using the VECTASTAIN ABC-AmP detection system following the manufacturer's protocol. Briefly, the membrane was washed three times for 4 min each in 10 mL 1× casein solution at r.t. with gentle shaking, and then incubated in the 10 mL 1× casein blotting solution containing 20 μL each of reagent A and B from the kit for 10 min. The membrane was washed three times for 4 min each in 10 mL 1× casein solution, followed by equilibration in 10 mL 0.1M Tris buffer, pH 9.5, for 5 min. The excess buffer was removed and the blot surface was incubated in 3 mL DuoLux chemiluminescent substrate for 5 min under subdued light. Briefly rinse the blot in 0.1 M Tris buffer, pH 9.5, and remove the excess buffer by touching the edge of the blot to absorbent paper. The image was obtained by exposing the blot to the Kodak BioMax Light Film.

[3] = biological target: T2, UbCH7 (E2), human recombinant (Homo sapiens, UniProt P68036); test: E2-Biotin Tag Conjugation Assay; type: biochemical
T2 construct: purchased Boston Biochem E2-640
T2 sequence (P68036 whole entry): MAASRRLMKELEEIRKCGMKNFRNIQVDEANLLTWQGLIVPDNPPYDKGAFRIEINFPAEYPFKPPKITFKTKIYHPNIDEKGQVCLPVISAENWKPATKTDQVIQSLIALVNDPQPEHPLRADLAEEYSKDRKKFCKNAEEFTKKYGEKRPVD
Description: The UbCH7 enzyme was diluted with a buffer of 50 mM HEPES, 50 mM NaCl, 10% glycerol, pH 7.6 to derive the 10 μM stocks. […] Reactions were terminated by the additions of 2 μL 6× non-reducing bromophenol-absent SDS-PAGE sample buffer and the mixtures were boiled at 85° C. for 2 min. The biotin-labeled […] were resolved from the free biotin tags with 8-16% Tris-Glycine SDS-PAGE gel, transferred onto the PVDF membrane using a semi-dry protein transfer apparatus, and detected using the VECTASTAIN ABC-AmP detection system following the manufacturer's protocol.

[4] = test system: Fraction II, rabbit reticulocyte; test: Fraction II - Biotin Tag Conjugation Assay; type: biochemical; conditions: ubiquitin-free reticulocyte fraction II containing E1, E2, E3 activities
Description: The fraction II from rabbit reticulocyte lysates was cleaned with ImmunoPure immobilized streptavidin beads from Pierce (Rockford, Ill.) to remove non-specific streptavidin-binding proteins following the manufacturer's instruction. An aliquot (11 μg) was then incubated with various amounts of biotin tag in 10 μL reaction buffer (100 mM Tris, 3 mM DTT, 5 mM MgCl2, 2 mM ATP, pH 7.6) at 37° C. for 5 min. The reactions were terminated by adding 2 μL 6×SDS-PAGE sample buffer and the mixtures were boiled at 85° C. for 2 min. The biotin-labeled substrates were resolved from the free biotin tags with 8-16% Tris-Glycine SDS-PAGE gel, transferred onto the PVDF membrane using a semi-dry protein transfer apparatus, and detected using the VECTASTAIN ABC-AmP detection system following the manufacturer's protocol.

Compound	labeling of proteins in tubulin/parkin complex ([1]; 450 μM)	labeling of tubulin in tubulin/parkin complex (FIG. 8) [1]	formation of E1-biotin tag adduct (E1-1 thioester) ([2]; incubated with E1 for 5 min, non-reducing ATP-supplemented buffer, streptavidin blot)	E1 biotin-adduct formation on withdrawal of ATP ([2]; no ATP in reaction buffer, tag 150 μM (FIG. 6))	biotin labeling of E2 in the absence of E1 ([3]; incubation with E2 alone, no E1)	extent of tag transfer from E1-1 to E2 ([3]; tag concentration reduced to 50 μM, E1 and E2 present)	covalent modification of proteins in fraction II extract [4]	concentration range of concentration-dependent biotin labeling of 55 KDa protein (tubulin) ([1]; 10 μM ATP, FIG. 2a)	biotin labeling efficiency of parkin-mediated tubulin modification versus recognition sequence [1]	activity in E1 adduct formation ([2]; concentrations as high as 450 μM)
O=C(O)CCCCCNC(=O)CCCC[C@@H]1SC[C@@H]2NC(=O)N[C@@H]21 [long-chain biotin, biotinylaminohexanonic acid, reference compound]	no labeling of any protein	could not label the tubulins								
tag 1: biotin linked through aminohexanoic acid linker to recognition sequence LRLRGG (SEQ ID NO: 1) (HELM PEPTIDE1{[O=C1N[C@H]2[C@H](CS[C@H]2CCCCC(=O)[*:2])N1].[O=C(CCCCCN[*:1])[*:2]].L.R.L.R.G.G}$$$$V2.0; SMILES CC(C)C[C@H](NC(=O)CCCCCNC(=O)CCCC[C@@H]1SC[C@@H]2NC(=O)N[C@@H]21)C(=O)N[C@@H](CCCNC(=N)N)C(=O)N[C@@H](CC(C)C)C(=O)N[C@@H](CCCNC(=N)N)C(=O)NCC(=O)NCC(=O)O)		Robust labeling	biotin-containing protein bands with the size matching that of E1 were detected	aborted the biotin-adduct formation	did not give rise to the biotin-labeled E2	undetectable level	concentration-dependent covalent modification of a large number of proteins	17 to 450 µM	highest labeling efficacy	
tag 2: biotin linked through aminohexanoic acid linker to sequence LALRGG (SEQ ID NO: 2) (HELM PEPTIDE1{[O=C1N[C@H]2[C@H](CS[C@H]2CCCCC(=O)[*:2])N1].[O=C(CCCCCN[*:1])[*:2]].L.A.L.R.G.G}$$$$V2.0; SMILES CC(C)C[C@H](NC(=O)CCCCCNC(=O)CCCC[C@@H]1SC[C@@H]2NC(=O)N[C@@H]21)C(=O)N[C@@H](C)C(=O)N[C@@H](CC(C)C)C(=O)N[C@@H](CCCNC(=N)N)C(=O)NCC(=O)NCC(=O)O)									decreased biotin labeling	almost no activity
